Results taken from patent publication US10807992B2, “Single enantiomer antiparasitic compounds” (priority 2017, dated 2020).
Read-outs that look alike come from different tables or passages of the source.

Experiment: Dog PK study of C1 (S) enantiomer, single oral dose, plasma and whole blood by chiral LC-MS/MS
Type: in vivo, beagle dogs
Conditions: for AUC(0-t): read-out: NCA AUC0-last; for AUC(0-inf): read-out: NCA AUC0-∞
Procedure: This study assessed the in vivo pharmacokinetic (PK) behavior of a single oral dose of the C1 (S) enantiomer in beagle dogs (Charles River study# 20104466). Solutions of C1 (S) enantiomer were dosed by oral gavage (10mg/kg) to a group of dogs (n=3). Blood samples were collected pre-dose and at 0.25, 0.5, 1, 2, 4, and 8 hours following dosing on Day 1. Blood samples were also collected on Days1, 2, 3, 5, 7, 10, 14, 17, 21, 25, 28, 32, 35, 39, 43, and 45. A portion of each whole blood sample was processed to plasma. Test article concentrations in plasma and whole blood were determined using liquid chromatography tandem mass spectrometry (LC-MS/MS).
Calibration curves were constructed by spiking racemic 1-[6-[5-(3,5-dichloro-4-fluoro-phenyl)-5-(trifluoromethyl)-4H-isothiazol-3-yl]spiro[1H-isobenzofuran-3,3′-azetidine]-1′-yl]-3,3,3-trifluoro-propan-1-one into aliquots of blank K2EDTA beagle plasma or whole blood (Bioreclamation, Westbury, N.Y.) at the following nominal concentrations: 5, 10, 20, 50, 100, 200, 500, 1000, 2000, 5000, and 10000 ng/mL. Quality control samples (QCs) were prepared in the same manner at the following concentrations: 15, 30, 150, 800, 1600, 4000, and 8000 ng/mL.
Samples (double blanks, blank+IS, blank+drug, standards, QC samples, and study samples) were extracted using a protein precipitation procedure. A 50 μL aliquot of plasma or blood was transferred into a deep well 96-well plate. To the sample aliquot, 250 μL of an internal standard (IS) solution for plasma or 300 μL for blood was added. The internal standard solution contained Afoxolaner at 50 ng/mL in methanol. For double blanks and blank+drug, neat methanol instead of IS was added. The 96-well plate was capped, shaken for ten minutes, and centrifuged at 5000 relative centrifugal force (RCF) for 10 minutes at 15° C. A 150-200 μL aliquot of the resulting supernatant of each sample was transferred to a clean, 96-well microtiter plate. The microtiter plate was capped and subjected to LC-MS/MS analysis.
The LC-MS/MS system consisted of a Leap autosampler, an Agilent 1100 series liquid chromatography pump, and a SciexAPI4000 mass spectrometer operated in triple quadrupole mode. A ChiralPak IA column (4.6×150mm, 5μm particle, Supplier Daicel PN 80324)at room temperature was used with water as mobile phase A and neat acetonitrile as mobile phase B. The LC gradient, MS parameters, and gas parameters are shown in the tables 2-4, respectively.
The mass spectrometer (MS) was operated in negative Turbo IonSpray™ mode with Multiple Reaction Monitoring (MRM).
Following LC-MS/MS analysis, peak area ratios were calculated (analyte peak area divided by internal standard peak area). Standard curves were created by generating least squares fitting plots of peak area ratio versus nominal concentration. Sample concentrations were calculated from the results of the least squares fits.
Cmax and Tmax are the observed maximum drug concentration and the time at which the maximum concentration occurs, respectively. Area under the curve (AUC) was calculated using the linear trapezoid method. To calculate half-lives (t1/2), a least squares regression was performed on a log concentration (C) versus time (t) plot (semi-log plot) to obtain the slope, k. The t1/2 is equal to 0.693/k. The t1/2 was calculated using data points in the elimination phase. For oral PK, Cl/F=Dose/AUC.
In this report, PK calculations were normalized to the measured dose solution concentrations. Note that in all figures and tables below, the nominal dose is listed.

[1] = dog, plasma, Beagle, oral 10 mg/kg, read-out: Plasma Concentration
[2] = dog, whole blood, Beagle, oral 10 mg/kg, read-out: Blood Concentration
[3] = dog, plasma, Beagle, oral gavage 10 mg/kg
[4] = dog, whole blood, Beagle, oral gavage 10 mg/kg
[5] = plasma, Beagle, oral gavage 10 mg/kg, 10 mg/kg
[6] = same dose level, beagle vs. mongrels

## O=C(CC(F)(F)F)N1CC2(C1)OCc1cc(C3=NS[C@@](c4cc(Cl)c(F)c(Cl)c4)(C(F)(F)F)C3)ccc12 [C1 (S) enantiomer, (S)-1-[6-[5-(3,5-dichloro-4-fluoro-phenyl)-5-(trifluoromethyl)-4H-isothiazol-3-yl]spiro[1H-isobenzofuran-3,3′-azetidine]-1′-yl]-3,3,3-trifluoro-propan-1-one]
1080 hr, Beagle, oral 10 mg/kg
  Blood Concentration: BQL ^b
After 240 hours
  concentration in plasma relative to blood concentration: about twice the blood concentration
At 48 hours
  concentrations in blood and plasma compared: similar
Beagle PK study vs. racemate oral efficacy studies in mongrels
  average half-life compared with the racemate: shorter than that of the racemate
beagle, dog, plasma, po, 10 mg/kg, plasma, Beagle, oral gavage 10 mg/kg, read-out: Tmax
  Tmax: 2 h
beagle, dog, plasma, po, 10 mg/kg, oral gavage 10 mg/kg
  CL/F: 0.833 mL/min/kg
beagle, dog, whole blood, po, 10 mg/kg, whole blood, Beagle, oral gavage 10 mg/kg, read-out: Tmax
  Tmax: 1.7 h
beagle, dog, whole blood, po, 10 mg/kg, oral gavage 10 mg/kg
  CL/F: 1.12 mL/min/kg
Chiral HPLC chromatograms of all study samples, dog
  bioconversion to the C1 (R) enantiomer in vivo: No bioconversion was observed
dog, in vivo, 1080 hr, Beagle, oral 10 mg/kg
  concentration at 1080 hr: 15.7 ± 6.3 ng/mL
[1]
  concentration at 0.25 hr: 291 ± 57 ng/mL
  concentration at 0.5 hr: 1170 ± 250 ng/mL
  concentration at 1 hr: 1920 ± 330 ng/mL
  concentration at 2 hr: 2260 ± 170 ng/mL
  concentration at 4 hr: 2010 ± 360 ng/mL
  concentration at 8 hr: 1110 ± 70 ng/mL
  concentration at 24 hr: 664 ± 112 ng/mL
  concentration at 48 hr: 567 ± 95 ng/mL
  concentration at 72 hr: 552 ± 65 ng/mL
  concentration at 120 hr: 393 ± 67 ng/mL
  concentration at 168 hr: 298 ± 39 ng/mL
  concentration at 240 hr: 270 ± 19 ng/mL
  concentration at 336 hr: 219 ± 24 ng/mL
  concentration at 408 hr: 135 ± 12 ng/mL
  concentration at 504 hr: 103 ± 15 ng/mL
  concentration at 600 hr: 80.4 ± 11.3 ng/mL
  concentration at 672 hr: 55.6 ± 12.2 ng/mL
  concentration at 768 hr: 47 ± 11.9 ng/mL
  concentration at 840 hr: 37.4 ± 8.2 ng/mL
  concentration at 936 hr: 24.8 ± 6.4 ng/mL
  concentration at 1032 hr: 18.8 ± 5.5 ng/mL
[2]
  concentration at 0.25 hr: 412 ± 89 ng/mL
  concentration at 0.5 hr: 1660 ± 380 ng/mL
  concentration at 1 hr: 3210 ± 230 ng/mL
  concentration at 2 hr: 3560 ± 570 ng/mL
  concentration at 4 hr: 2990 ± 340 ng/mL
  concentration at 8 hr: 1220 ± 170 ng/mL
  concentration at 24 hr: 708 ± 162 ng/mL
  concentration at 48 hr: 572 ± 128 ng/mL
  concentration at 72 hr: 428 ± 71 ng/mL
  concentration at 120 hr: 292 ± 56 ng/mL
  concentration at 168 hr: 245 ± 47 ng/mL
  concentration at 240 hr: 136 ± 20 ng/mL
  concentration at 336 hr: 100 ± 6 ng/mL
  concentration at 408 hr: 75.8 ± 11.2 ng/mL
  concentration at 504 hr: 57.3 ± 8.5 ng/mL
  concentration at 600 hr: 41.2 ± 3.7 ng/mL
  concentration at 672 hr: 30.5 ± 5.1 ng/mL
  concentration at 768 hr: 21.5 ± 4.2 ng/mL
  concentration at 840 hr: 17.4 ± 4.8 ng/mL
  concentration at 936 hr: 14.3 ± 3.4 ng/mL
  concentration at 1032 hr: 13.8 ng/mL
[3]
  half-life: 205 h
  AUC(0-t): 191 µg·h/mL
  AUC(0-inf): 196 µg·h/mL
dog, plasma, Beagle, oral gavage 10 mg/kg, read-out: Cmax
  Cmax: 2260 ng/mL
[4]
  half-life: 209 h
  AUC(0-t): 144 ± 11 µg·h/mL
  AUC(0-inf): 148 µg·h/mL
dog, whole blood, Beagle, oral gavage 10 mg/kg, read-out: Cmax
  Cmax: 3650 ng/mL
First few hours post-dose
  blood concentrations compared with plasma concentrations: significantly higher than the corresponding plasma concentrations
Initial phase post-dose
  affinity to red blood cells (RBC): higher initial affinity to red blood cells (RBC)
plasma, Beagle, oral gavage 10 mg/kg
  tlast: 1080 h
[5]
  Cl/F: 0.84 ± 0.0467 mL/min/kg
  Cmax: 2260 ± 170 ng/mL
  NCA AUC0-last: 191 ± 11 µg·h/mL
[6]
  AUC compared with the racemate: lower compared to those of the racemate
  Cmax compared with the racemate: lower compared to those of the racemate
Whole blood, Beagle, oral gavage 10 mg/kg, 10 mg/kg
  Tmax: 1.67 ± 0.58 h
